The values below come from PubChem BioAssay AID1996.

≈ marks a conversion by molar mass, not a printed value.

The conditions of this series: buffer; pH 7.4; 200.0 µM.
As for `COc1ccc(/C=N/OC(=O)c2ccc(Cl)cc2)c(Cl)c1OC`, the solubility (kinetic) is under 0.8 µg/mL.

As to `O=C(Cc1cccc2ccccc12)Nc1cccnc1`, the solubility (kinetic) came out at 39 µg/mL (≈ 149 µM).

The molecule `O=C(N1CCCCC1)C1(c2ccccc2)CCCCC1` yielded a kinetic solubility of 3.6 µg/mL (≈ 13.3 µM).

On to `Cc1ccc(-c2nc3ncccc3o2)cc1N`, for which the kinetic solubility is over 33.8 µg/mL.

`O=C(NC1CCCCC1)C1CC(=O)N(CCc2ccc(F)cc2)C1` (stereo unspecified) had a kinetic solubility of 45 µg/mL (≈ 135 µM).

With `O=C1CCCC2=C1C(c1ccncc1)n1c(nc3ccccc31)N2` (stereo unspecified), the kinetic solubility was determined as 6.7 µg/mL (≈ 21.2 µM).

Molecule `COc1ccccc1NC(=O)/C=C/C(=O)O` returned a solubility (kinetic) of over 33.2 µg/mL.

The molecule `O=C(NCC(=O)N1CCOCC1)c1ccc(Cl)cc1` displayed a solubility (kinetic) of over 42.4 µg/mL.

As to `COc1ccccc1CNC(=O)C(CCSC)NC(=O)c1cccc(S(=O)(=O)N2CCOCC2)c1` (stereo unspecified), the kinetic solubility was 3.4 µg/mL (≈ 6.52 µM).

In turn, `COc1ccc(S(=O)(=O)NCc2cccnc2)cc1C` came in with a kinetic solubility of over 43.9 µg/mL.

In turn, `CCCc1nnc(SCC(=O)NC2CC2)n1C` yielded a solubility (kinetic) of over 38.2 µg/mL.

Consider `CC(NC(=O)CCc1c[nH]c2ccccc12)c1ccccc1` (stereo unspecified), for which the solubility (kinetic) is over 43.9 µg/mL.

In turn, `CCOC(=O)C1=C(C)NC(SC)=C(C#N)C1CC(C)C` (stereo unspecified) came in with a solubility (kinetic) of 2.3 µg/mL (≈ 7.81 µM).

`CNC(=O)c1ccccc1-c1cn(C)c2ccccc2c1=O` had a solubility (kinetic) of over 43.9 µg/mL.

In turn, `O=C(CN1C(=O)c2ccc([N+](=O)[O-])cc2C1=O)NCc1ccco1` showed a solubility (kinetic) of over 49.4 µg/mL.

The molecule `Cc1cc(C)c2nc(N3CCOCC3)c(C#N)cc2c1` came in with a kinetic solubility of 0.2 µg/mL (≈ 0.748 µM).

Regarding `O=C(Nc1cc(Cl)ccc1N1CCOCC1)c1ccc(=O)[nH]c1`, the solubility (kinetic) turned out to be 38.1 µg/mL (≈ 114 µM). Compared with the last molecule, the solubility kinetic is about 190-fold higher.

Turning to `COC(=O)c1cc(OC(=O)c2ccc(=O)[nH]c2)cc(C(=O)OC)c1`, the kinetic solubility amounted to 12.6 µg/mL (≈ 38 µM).

In turn, `CC(C)c1nc(SCC(=O)NC2CCCCC2)c2ccccc2n1` gave a solubility (kinetic) of 1.8 µg/mL (≈ 5.24 µM).

For the molecule `CCOc1ccc(-c2ncncc2-c2ccccc2OC)c(O)c1`, the solubility (kinetic) is 34 µg/mL (≈ 105 µM).

With `CC(C)[C@H](NC(=O)c1ccccc1)C(=O)NC1=NCCS1`, the kinetic solubility was 44.6 µg/mL (≈ 146 µM).

For the molecule `COc1ccccc1NC(=S)N(Cc1ccccc1)Cc1cccnc1`, the kinetic solubility came out at 45.8 µg/mL (≈ 126 µM).

In the case of `COc1ccccc1NC(=O)C/C(N)=N/OCC(=O)Nc1cccc(Cl)c1`, the solubility (kinetic) is over 58.6 µg/mL.

Turning to `CC(=O)N1Cc2[nH]c3ccccc3c2CC1C(=O)O` (stereo unspecified), the solubility (kinetic) is over 38.7 µg/mL.

`Nc1nc(NCc2ccco2)nc(N2CCCC2)c1[N+](=O)[O-]` registered a solubility (kinetic) of over 45.6 µg/mL.

The molecule `N#Cc1cccc(NC(=O)COC(=O)c2ccc[n+]([O-])c2)c1` gave a solubility (kinetic) of over 44.6 µg/mL.

Regarding `O=C(NC(=S)N1CCN(c2ccc(O)cc2)CC1)c1ccco1`, the kinetic solubility was over 49.7 µg/mL.

Take `O=C(O)c1cccc(S(=O)(=O)NCC2COc3ccccc3O2)c1` (stereo unspecified): the kinetic solubility is over 52.4 µg/mL.

Consider `CCSc1ccccc1C(=O)Nc1ccc2c(c1)OCO2`, for which the solubility (kinetic) was 13.8 µg/mL (≈ 45.8 µM).

The molecule `C=C(C)c1cccc(C(C)(C)NC(=O)Nc2nncs2)c1` showed a solubility (kinetic) of over 45.4 µg/mL.

As for `CC(=O)NS(=O)(=O)c1ccc(NC(=O)C(C)NS(=O)(=O)/C=C/c2ccccc2)cc1` (stereo unspecified), the solubility (kinetic) was found to be 63.3 µg/mL (≈ 140 µM).

Molecule `Cc1ccsc1C(=O)OCC(=O)N(C)C1CCCCC1` yielded a kinetic solubility of over 44.3 µg/mL.

In turn, `CC(C)(C)N(CC#CCC(O)(c1ccccc1)c1ccccc1)CCO` had a solubility (kinetic) of 47.1 µg/mL (≈ 134 µM).

Take `Cc1ccc(C)c(NC(=S)NCCc2cnc[nH]2)c1`: the solubility (kinetic) came to 36.8 µg/mL (≈ 134 µM).

As for `Cc1cc(C)cc(C(=O)NCC(=O)OCC(=O)N2CCCCC2)c1`, the solubility (kinetic) came to 49.3 µg/mL (≈ 148 µM). This solubility kinetic and that of the molecule before are within 1.5-fold of each other.

Regarding `COc1cccc(N2CCC(N3CCN(C)C(CCO)C3)CC2)c1` (stereo unspecified), the solubility (kinetic) was 48.4 µg/mL (≈ 145 µM).

In the case of `CCC(CC)C(=O)NCc1ccc(OC)cc1`, the kinetic solubility was found to be 32.7 µg/mL (≈ 139 µM). The solubility kinetic values of the last two molecules are within 1.5-fold of each other.

With `Cc1ccc(NC2(C#N)C(=O)Nc3ccccc32)cc1C` (stereo unspecified), the solubility (kinetic) worked out at 23.3 µg/mL (≈ 84 µM).

On to `O=C1CN(C(=O)c2ccccc2Cl)c2ccccc2N1`, for which the kinetic solubility is over 43 µg/mL.

`COc1ccc(CCC(=O)NCC23CC4CC(CC(C4)C2)C3)cc1` yielded a solubility (kinetic) of 30.7 µg/mL (≈ 93.7 µM).

Take `Cc1ccc(C)c(OCCCN2CCNCC2)c1.Cl`: the solubility (kinetic) worked out at 39.3 µg/mL.
